Experimental findings from US12390482B2, “Neurolytic agents and methods of using and identifying same” (priority 2021, dated 2025) are described below.

Usually EC50 stands for the concentration at which the effect is half-maximal.

The target in one assay is T1, SARM1 (Homo sapiens, UniProt Q6SZW1).
T1 construct: StrepTag (N); made in house; host or cells: HEK 293T cells stably expressing NRK1
T1 sequence (Q6SZW1 28-724): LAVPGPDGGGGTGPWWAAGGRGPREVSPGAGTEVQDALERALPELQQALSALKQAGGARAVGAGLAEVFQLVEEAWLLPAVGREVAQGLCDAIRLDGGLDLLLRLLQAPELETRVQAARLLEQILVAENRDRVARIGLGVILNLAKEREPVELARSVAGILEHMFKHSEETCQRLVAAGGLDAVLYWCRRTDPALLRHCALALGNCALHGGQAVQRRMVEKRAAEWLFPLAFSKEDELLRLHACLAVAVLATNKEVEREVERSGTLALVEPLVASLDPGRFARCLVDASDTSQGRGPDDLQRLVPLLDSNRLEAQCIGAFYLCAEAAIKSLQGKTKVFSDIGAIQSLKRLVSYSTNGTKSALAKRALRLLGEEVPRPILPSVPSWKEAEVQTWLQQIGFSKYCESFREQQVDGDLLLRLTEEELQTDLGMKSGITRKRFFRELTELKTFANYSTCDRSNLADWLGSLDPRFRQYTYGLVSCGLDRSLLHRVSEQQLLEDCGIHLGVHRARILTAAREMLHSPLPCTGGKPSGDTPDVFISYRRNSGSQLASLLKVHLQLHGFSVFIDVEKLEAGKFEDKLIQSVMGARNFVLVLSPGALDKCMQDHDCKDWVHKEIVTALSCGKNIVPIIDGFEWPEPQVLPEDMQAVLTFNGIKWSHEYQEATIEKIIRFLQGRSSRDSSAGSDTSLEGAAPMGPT
Kind of assay: SARM1 activation assay by PC6 fluorescence. It is filed as biochemical. The procedure:
SARM1 protein purification from mammalian cells: A HEK 293T cell line stably expressing NRK1 was used to produce SARM1 protein as previously described. In short, plasmid containing N-terminal StrepTag-SARM1 was transfected into NRK1-HEK 293T cells using X-tremeGENE reagent (Millipore Sigma). After 2 days, the cells were harvested and re-suspended with binding buffer (100 mM Tris-HCL pH 8, 150 mM sodium chloride, 0.01% Tween-20 with EDTA-free protease inhibitors (Pierce)). After sonication, cell debris was removed by centrifugation at 15,000×g for 10 minutes. Soluble lysates were then mixed with StrepTactin Megbeads (Cube Biotech) equilibrated with the same binding buffer. After incubation at 4° C. for 60 minutes, beads were washed with washing buffer (25 mM HEPES, pH 7.5 and 150 mM NaCl with EDTA-free protease inhibitors). […]
SARM1 activation assay by PC6 fluorescence: Modified from previous paper, typically, in a mixture of 50 μl, ˜200 ng of SARM1(on-beads) was mixed with 50 μM PC6, 50 μM NAD^+ and 0 to 100 μM of purified 3APMN. The reaction was carried out in a Bio Tek's Cytation 5 plate reader at 25° C. Fluorescence signal, which corresponds to PAD6 formation, was recorded with 405 nm excitation and 520 nm emission wavelengths every 2 minutes. The production rate of PAD6 was calculated based on the fluorescence changes within the first 30 minutes of reaction.

Assay [1] has as its system WT mouse embryonic dorsal root ganglion (DRG) neurons. Kind of assay: Axon degeneration in cultured WT DRG neurons. It is filed as cell-based. To be noted: for activity as SARM1 activator (tested compounds): axon degeneration and SARM1 activation assays. The procedure:
(§1) DRG neuron culture: Mouse DRG culture was as described previously. Mouse DRGs were dissected at embryonic day 13.5. Approximately 50 ganglia were collected from each embryo and dissociated in 0.05% Trypsin containing 0.02% EDTA (Gibco) at 37° C. for 20 min. The DRG neurons were washed 3 times with DRG culture medium after incubation with Trypsin. Cells were seeded as spot cultures in 96-tissue culture plates (Corning) coated with 0.1 mg/ml poly-D-lysine and 0.1 mg/ml laminin. They were cultured in Neurobasal (Gibco) containing 2% B27 (Invitrogen), 100 ng/ml 2.5S NGF (Harlan Bioproducts), and 1 μM 5-fluoro-2′-deoxyuridine/1 μM uridine. The culture medium was exchanged with fresh DRG culture medium every 2-3 days. Lentiviruses were added 3 days after seeding (DIV3).
[…] After axon transection, bright-field images of distal axons were taken using the Operetta automated imaging system (PerkinElmer). Axon degeneration indexes were calculated from these bright-field images using ImageJ (NIH). The axon degeneration index was calculated as the ratio of fragmented axon areas as previously described. Indexes were calculated as the average of six fields per well.

Another assay concerns Sarm1 KO DRG neurons. Briefly: Axon degeneration and neuronal death in cultured Sarm1 KO DRG neurons. Type of assay: cell-based, mouse. As for the experimental part:
as §1
Quantification of axon degeneration: After culture for 7 days, axotomy was performed by cutting DRG axons manually with a razor blade. After axon transection, bright-field images of distal axons were taken using the Operetta automated imaging system (PerkinElmer). Axon degeneration indexes were calculated from these bright-field images using ImageJ (NIH). The axon degeneration index was calculated as the ratio of fragmented axon areas as previously described. Indexes were calculated as the average of six fields per well.

The test system of another assay is WT DRG neurons. Briefly: Metabolite measurement by LC-MS/MS in WT DRG neurons. Type of assay: cell-based, mouse. To be noted: neurons pre-treated with FK866 prior to 3-AP addition. The procedure:
as §1
Metabolite measurement using LC-MS/MS: Lyophilized samples were reconstituted with 50 μl of 5 mM ammonium formate and centrifuged at 12,000 g for 10 min. Cleared supernatants were transferred to sample vials. Serial dilutions of standards for each metabolite in 5 mM ammonium formate were used for calibration. HPLC-mass spectrometry analysis was performed on an Agilent 1290 Infinity II liquid chromatography system (Agilent Technologies, Santa Clara, CA) with a flexible pump, multisampler, sample cooler and an MCT containing an Atlantis T3 column (2.1×150 mm, 3 μm) and VanGuard guard cartridge (2.1 mm×5 mm, 3 μm) (Waters, Milford, MA), coupled to an Agilent 6470 Triple Quad mass spectrometer (Agilent Technologies, Santa Clara, CA). The mobile phase (0.15 ml/min) was 5 mM ammonium formate in water (A) and 100% methanol (B). The column was equilibrated with 0% B, maintained after injection for 2 min, then a linear gradient to 20% B applied over 4 min. The column was then ramped to 50% B over 2 min, and held at 50% for 2 min, then reverted back to 0% B over the next 5 min and allowed to re-equilibrate at 0% B for 9 min. The total run time was 24 min per sample. […] Raw data were acquired and quantified using MassHunter Workstation software version B.08.00 for 6400 Series Triple Quadrupole (Agilent Technologies, Santa Clara, CA).

The test system of another assay is sensory neurons. Briefly: Vacor-induced degeneration of sensory neurons. Type of assay: cell-based.

`CC(=O)c1ccc[n+]([C@@H]2O[C@H](COP(=O)([O-])O)[C@@H](O)[C@H]2O)c1` [3-APMN, 3-acetylpyridine mononucleotide] had an EC50 at SARM1 of approximately 44 µM.

For the molecule `Nc1ccncc1` [4-aminopyridine], the “activity as SARM1 activator (tested compounds)” value in assay [1] is given as “did not work”. On the same count and under the same terms, the value for `Nc1cccnc1` [3-aminopyridine] was “did not work”; that for `CC(=O)c1ccccn1` [2-acetylpyridine] was “did not work”. Consider `Nc1ccccn1` [2-aminopyridine], for which the axon degeneration entry in assay [1] (WT neurons) was “causes axon degeneration”; with Sarm1 KO DRG neurons it was “not in Sarm1 KO neurons”. Take `NC(=O)c1cccnc1` [Nam, nicotinamide]: in assay [1] (Nam 0, 50, 100 or 200 μM overnight, then 3-AP 500 μM), the “effect of pretreatment on 3-AP-induced axon degeneration” value is given as “reduces 3-AP-induced axon degeneration in a dose-dependent manner”. As for `O=C(/C=C/c1cccnc1)NCCCCC1CCN(C(=O)c2ccccc2)CC1` [FK866, reference compound], the “effect on neurotoxic actions of 3-AP” value in assay [1] (FK866 25, 50 or 100 nM overnight, then 3-AP 300 μM) is on record as “blocks the neurotoxic actions of 3-AP”. Moreover, the “3-APMN, 3-APAD and cADPR levels in 3-AP treated neurons” value with WT DRG neurons is 3-APMN and 3-APAD remain at baseline, and cADPR levels do not increase.

In the case of `O=C(NCc1cccnc1)Nc1ccc([N+](=O)[O-])cc1` [Vacor, N-(4-Nitrophenyl)-N′-[(pyridin-3-yl)methyl]urea], the “SARM1 dependence of neuron degeneration” value with sensory neurons (FIG. 6) is recorded as “SARM1-dependent”. Further, in the assay on sensory neurons (local application to neurites), the “effect of local application to neurites” value is “causes distal neurite degeneration without harming neuron cell bodies”. In the case of `CC(=O)c1ccncc1` [4-acetylpyridine], the “activity as SARM1 activator (tested compounds)” value in assay [1] is given as “did not work”.
